Measurements from PMC6611227 (Frontiers in Microbiology, 2019).
Read-outs that look alike come from different tables or passages of the source.

B1: StDHODH (dihydroorotate dehydrogenase) (Solanum tuberosum; I273V/I299V/P120T/P359Q) (protein)
chain: ASTVDEATFCGWLFSATKLVNPFFAFLDPEVAHRLAVSAAARGWVPREKRTDLPILGLDVWGRRFSNPVGLAAGFDKNAEAVEGLLGLGFGFVEVGSVTPIPQEGNPKPRIFRLPNEGALINRCGFNSEGIVAVAKRLGAQHGKRKLETSSTSSPAGDEVKHGGKAGPGILGVNLGKNKTSEDAAADYVQGVHTLSQYADYLVVNISSPNTPGLRQLQGRKQLKDLVKKVQAARDEMQWGEEGPPPLLVKIAPDLSKQDLEDIAAVALALRVDGLIISNTTIQRPDSVSQNPVAQETGGLSGKPLFNMSTNILKEMYLLTKGRIPLIGCGGISSGEDAYKKIRAGATLVQLYTAFGYGGPALIPNIKAELAHCLEKDGYKSVHEAVGADCR

Columns and labels:
[1] = biological target: T1, PiDHODH (dihydroorotate dehydrogenase) (Phytophthora infestans, UniProt D0MUE3); test: biochemical
T1 construct: gene PITG_01913

[2] = biological target: T1, PiDHODH (dihydroorotate dehydrogenase); test: biochemical; conditions: read-out: Activity % PiDHODH
[3] = tested on: O=C1C[C@@H](C(=O)O)NC(=O)N1; test: purified protein
[4] = substrate: O=C1C[C@@H](C(=O)O)NC(=O)N1; test: purified protein; conditions: FMN orotate/dihydroorotate site in the α/β-barrel domain

T1 sequence (D0MUE3 55-424 limits assumed): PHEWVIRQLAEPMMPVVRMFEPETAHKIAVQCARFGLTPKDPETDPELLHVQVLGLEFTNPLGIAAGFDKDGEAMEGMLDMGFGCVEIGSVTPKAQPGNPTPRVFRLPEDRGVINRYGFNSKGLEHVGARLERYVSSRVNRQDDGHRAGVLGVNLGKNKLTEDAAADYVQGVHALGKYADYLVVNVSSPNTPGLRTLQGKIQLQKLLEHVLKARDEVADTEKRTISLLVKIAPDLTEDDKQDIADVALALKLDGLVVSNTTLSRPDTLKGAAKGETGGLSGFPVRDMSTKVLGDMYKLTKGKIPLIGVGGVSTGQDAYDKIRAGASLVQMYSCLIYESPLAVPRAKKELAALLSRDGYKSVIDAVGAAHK

| Molecule | activity at 500 µM [2] [%] | also measured |
| --- | --- | --- |
| C/C(O)=C(\C#N)C(=O)Nc1ccc(C(F)(F)F)cc1 [A77 1726] |  | IC50 [1]: 79 ± 8 µM |
| Cc1cc(Nc2cc(F)c(C(F)(F)F)c(F)c2)n2ncnc2n1 [DSM190, N-(3,5-difluoro-4-(trifluoromethyl)phenyl)-5-methyl-[1,2,4]triazolo[1,5-a]pyrimidin-7-amine] | 36 ± 10 |  |
| COc1cc(-c2ccc(Nc3ccccc3C(=O)O)c(OC)c2)ccc1Nc1ccccc1C(=O)O [Redoxal] | 31 ± 8 |  |
| O=C(O)C1=C(C(=O)Nc2ccc(-c3ccccc3)cc2)CCC1 [compound 1, 2-(4-biphenylylcarbamoyl)-1-cyclopentene-1-carboxylic acid] | 23 ± 4 |  |
| COc1c(-c2ccccc2)ccc(NC(=O)C(C#N)=C(C)O)c1Cl [compound 19, N-(3-chloro-2-methoxybiphenyl-4-yl)-2-cyano-3-hydroxybut-2-enamide] | 2 ± 0.5 |  |
| CC(O)=C(C#N)C(=O)Nc1ccc(-c2ccccc2)cc1Cl [compound 28, N-(3-chlorobiphenyl-4-yl)-2-cyano-3-hydroxybut-2-enamide] | 1 ± 0.7 |  |
| O=C1C(O)=C(CC=C(Cl)Cl)C(=O)c2ccccc21 [dichloroallyl lawsone] | 30 ± 2 |  |
| PiDHODH (dihydroorotate dehydrogenase) (Phytophthora infestans T30-4) |  | Km [3]: 57 ± 3 µM |
| B1 |  | Km [4]: 20 ± 1 µM |
